Reference: PMC6797808, “Fucosylated inhibitors of recently identified bangle lectin from Photorhabdus asymbiotica” (Scientific Reports, 2019)

Molecular target: PHL (Photorhabdus asymbiotica, UniProt C7BLE4)
Assay: SPR competitive inhibition of PHL binding to α-L-fucoside sensor chip
Conditions: for IC50: 25 °C, three independent measurements; for β L-Fuc (affinity improvement factor): IC50,basic unit/(valency × IC50,ligand), basic unit L-Fuc; for PotencyL-Fuc: IC50 L-fucose / IC50 ligand; for β Azide1 (affinity improvement factor): basic unit azide 1
Protocol: To analyse the competitive inhibition of PHL binding to a multivalent surface, the surface plasmon resonance (SPR) technique was employed. A sensor chip presenting α-L-fucopyranoside residues was treated with a constant concentration of PHL, while an increasing concentration of the ligands was used to determine IC50 (Table 2, Fig. 3). […] To assess the contribution of valency to the affinity increase, an affinity improvement factor β was calculated as the relationship IC50,basic unit/(valency × IC50,ligand)[30].
Surface plasmon resonance (SPR) experiments were performed on a BIAcore T200 instrument (GE Healthcare, UK) at 25 °C, using buffer A supplemented with 0.05% Tween 20 as a running buffer. α-L-fucoside was immobilized onto CM5 sensor chip (GE Healthcare, UK) covered with a carboxymethylated dextran matrix. The sensor chip surface was activated with N-ethyl-N-(3-dimethylaminopropyl)carbodiimide/N-hydroxysuccinimide solution and then coated with streptavidin using the manufacturer’s standard protocol using HBS buffer (10 mM HEPES, 150 mM NaCl, 0.05% Tween 20, pH 7. 5). Unreacted groups were blocked with 1 M ethanolamine-HCl, pH 8.5. Biotinylated carbohydrate (biotinilated monomeric probes, Lectinity, Russia) was injected onto particular measuring channel and pure biotin on blank channel at a flow rate of 5 μl/min.
SPR inhibition measurements were carried out on measuring channel with L-fucoside at a flow rate of 5 µl/min. PHL was diluted to a concentration of 20 μg/ml by the buffer A supplemented with 0.05% Tween 20, mixed 1:1 (v/v) with various concentrations of inhibitors (500–5 μM) in the same buffer and injected onto the sensor chip. The response of lectin bound to the sugar surface at equilibrium was plotted against the concentration of inhibitor in order to determine IC50 (concentration of inhibitor resulting in 50% inhibition of binding). As IC50 is not a constant and depends on the experimental set-up, a parameter called potency was used for characterization. The potency of a tested inhibitor is the ratio of IC50 of a chosen standard inhibitor (in this case L-fucose) and the inhibitor in question. Pure PHL lectin was used as a control (0% inhibition) and channel with pure biotin served as a blank. IC50 was determined from triplicates.

Chain of PHL (C7BLE4 entry or part of it): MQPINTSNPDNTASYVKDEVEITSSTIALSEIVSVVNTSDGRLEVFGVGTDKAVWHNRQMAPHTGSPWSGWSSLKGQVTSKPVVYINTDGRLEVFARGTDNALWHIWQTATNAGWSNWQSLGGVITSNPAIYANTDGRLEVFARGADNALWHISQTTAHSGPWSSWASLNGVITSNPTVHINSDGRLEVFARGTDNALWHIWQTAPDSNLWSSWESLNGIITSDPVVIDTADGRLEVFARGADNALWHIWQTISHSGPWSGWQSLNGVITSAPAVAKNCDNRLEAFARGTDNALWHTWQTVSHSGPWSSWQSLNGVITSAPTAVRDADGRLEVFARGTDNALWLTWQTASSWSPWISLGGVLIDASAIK

Structure (SMILES)	IC50 [µM]	β L-Fuc (affinity improvement factor)	PotencyL-Fuc	β Azide1 (affinity improvement factor)	PotencyAzide1 (relative to azide 1)
C[C@@H]1O[C@@H](CCN=[N+]=[N-])[C@@H](O)[C@H](O)[C@@H]1O [Azide 1]	11.5 ± 1.4	32	32	1	–
C[C@@H]1O[C@@H](CCn2cc(COCC(COCc3cn(CC[C@@H]4O[C@@H](C)[C@@H](O)[C@@H](O)[C@@H]4O)nn3)(COCc3cn(CC[C@@H]4O[C@@H](C)[C@@H](O)[C@@H](O)[C@@H]4O)nn3)COCc3cn(CC[C@@H]4O[C@@H](C)[C@@H](O)[C@@H](O)[C@@H]4O)nn3)nn2)[C@@H](O)[C@H](O)[C@@H]1O [Dendrimer 8]	0.188 ± 0.037	481	1,922	approximately 15	65
